Assay results from patent publication US11179383B2 (Gilead Sciences, Inc., priority 2018, dated 2021).

Target: T1, α4β7 integrin (Homo sapiens, UniProt P13612+P26010)
T1 construct: monitoring the capture of α4β7 integrin expressing cells on a recombinant MadCAM-1 extracellular domain-coated plate; endogenous in cells; host or cells: RPMI8866 cells
T1 sequence (P13612 34-1032): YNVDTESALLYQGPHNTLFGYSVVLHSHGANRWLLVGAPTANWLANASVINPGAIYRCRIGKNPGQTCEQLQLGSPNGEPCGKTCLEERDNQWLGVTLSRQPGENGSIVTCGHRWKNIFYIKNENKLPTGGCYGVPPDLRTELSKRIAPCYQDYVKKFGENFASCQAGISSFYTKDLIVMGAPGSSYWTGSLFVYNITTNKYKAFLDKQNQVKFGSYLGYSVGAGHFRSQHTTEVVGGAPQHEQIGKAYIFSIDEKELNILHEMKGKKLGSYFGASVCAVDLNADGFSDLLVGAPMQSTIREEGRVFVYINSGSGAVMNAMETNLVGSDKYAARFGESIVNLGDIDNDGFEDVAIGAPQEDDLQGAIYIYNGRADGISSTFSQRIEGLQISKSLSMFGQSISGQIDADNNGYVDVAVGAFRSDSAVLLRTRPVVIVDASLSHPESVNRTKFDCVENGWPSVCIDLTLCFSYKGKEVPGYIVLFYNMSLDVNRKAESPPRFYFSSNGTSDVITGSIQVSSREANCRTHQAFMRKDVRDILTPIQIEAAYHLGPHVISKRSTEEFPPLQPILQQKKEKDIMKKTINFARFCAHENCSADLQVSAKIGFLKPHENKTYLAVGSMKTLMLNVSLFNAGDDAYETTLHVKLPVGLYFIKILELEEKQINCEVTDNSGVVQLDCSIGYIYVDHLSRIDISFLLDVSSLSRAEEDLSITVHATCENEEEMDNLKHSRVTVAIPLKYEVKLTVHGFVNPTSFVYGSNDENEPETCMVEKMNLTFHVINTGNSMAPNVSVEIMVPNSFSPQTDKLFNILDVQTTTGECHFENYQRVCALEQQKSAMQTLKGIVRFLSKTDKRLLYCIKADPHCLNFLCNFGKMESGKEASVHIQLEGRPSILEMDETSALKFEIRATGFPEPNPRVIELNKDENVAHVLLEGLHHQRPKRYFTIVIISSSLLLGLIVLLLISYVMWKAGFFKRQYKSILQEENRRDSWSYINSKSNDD
T1 sequence (P26010 20-798): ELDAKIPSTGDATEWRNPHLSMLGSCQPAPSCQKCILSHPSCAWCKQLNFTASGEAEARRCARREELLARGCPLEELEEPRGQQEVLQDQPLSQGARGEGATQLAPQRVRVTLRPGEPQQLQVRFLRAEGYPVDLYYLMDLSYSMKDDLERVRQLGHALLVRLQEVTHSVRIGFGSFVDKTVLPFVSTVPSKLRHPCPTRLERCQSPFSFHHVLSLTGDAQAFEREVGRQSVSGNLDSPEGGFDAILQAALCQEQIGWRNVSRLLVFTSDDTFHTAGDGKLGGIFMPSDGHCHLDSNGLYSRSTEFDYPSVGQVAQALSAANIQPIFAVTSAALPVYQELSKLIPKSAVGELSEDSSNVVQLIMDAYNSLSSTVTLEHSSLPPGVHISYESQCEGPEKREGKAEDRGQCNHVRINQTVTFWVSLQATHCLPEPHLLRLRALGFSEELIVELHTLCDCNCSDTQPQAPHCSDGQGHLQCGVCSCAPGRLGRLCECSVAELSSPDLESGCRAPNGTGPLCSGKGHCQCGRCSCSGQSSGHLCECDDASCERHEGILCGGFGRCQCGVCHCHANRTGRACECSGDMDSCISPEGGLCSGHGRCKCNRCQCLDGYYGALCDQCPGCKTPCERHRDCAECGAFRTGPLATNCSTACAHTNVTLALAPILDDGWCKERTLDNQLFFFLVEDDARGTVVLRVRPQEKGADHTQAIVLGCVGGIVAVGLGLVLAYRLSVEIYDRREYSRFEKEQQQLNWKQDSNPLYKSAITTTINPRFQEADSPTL
Experiment: α4β7 Integrin Cell Capture Assay
Assay type: cell-based
Details: capture of α4β7 integrin expressing RPMI8866 cells on recombinant MadCAM-1 extracellular domain-coated plate; DMEM+0.5% FBS+0.5 mM MnCl2; read-out: EC50 α4β7
Description: α4β7 Integrin Cell Capture Assay
The potency of inhibitors in preventing α4β7 integrin interaction with MadCAM-1 was measured by monitoring the capture of α4β7 integrin expressing cells on a recombinant MadCAM-1 extracellular domain-coated plate.
384-Well plates (Corning 3702) were coated with MadCAM-1 extracellular domain by dispensing 20 μL of MAdCAM-1 at 1.0 μg/mL per well and incubating overnight at 4° C. The plates were then washed with PBS and blocked with 3% BSA for 2 hours before being washed again.
RPMI8866 cells were spun down and re-suspended in assay medium (DMEM+0.5% FBS+0.5 mM MnCl2) at a density of 0.5×10^6 cells/mL. The cells were then dispensed (60 μL/well) to a 384-well plate (Greiner 781280) that was previously spotted with 60 nL of test compound per well. The plates were incubated at 37° C. for 1 hour. 50 μL of cells were transferred to the blocked, MadCAM-1-coated plates and incubated for 30 minutes at 37° C. 10 μL of 12% glutaraldehyde containing Hoechst 33342 (0.06 mg/mL) was added to the cells (2% glutaraldehyde and 0.01 mg/mL final concentrations). The plates were incubated for 90 minutes at room temperature. The plates were then washed 3 times with 70 μL of PBS per well and imaged on a Cellomics ArrayScan instrument. The cells that were bound to the plate were counted and plotted against the compound concentration to determine the EC50 of the test compounds.

| EC50 | Structure (SMILES) |
| --- | --- |
| 161 nM | O=C(N[C@@H](Cc1ccc(-c2c(Cl)cc(F)cc2Cl)c2nccnc12)C(=O)O)c1c(Cl)cccc1Cl [Example 157, (S)-3-(8-(2,6-dichloro-4-fluorophenyl)quinoxalin-5-yl)-2-(2,6-dichlorobenzamido)propanoic acid] |
| 45.1 nM | O=C(N[C@@H](Cc1ccc(-c2nccc(C(F)(F)F)c2Cl)c2cccnc12)C(=O)O)c1c(Cl)cccc1Cl [Example 51, (S)-3-(5-(3-chloro-4-(trifluoromethyl)pyridin-2-yl)quinolin-8-yl)-2-(2,6-dichlorobenzamido)propanoic acid] |
| 0.5 nM | CCOCc1cc(OC)c(-c2ccc(C[C@H](NC(=O)c3c(F)cc(NS(=O)(=O)c4ccc(-c5ccnc(F)c5)cc4)cc3F)C(=O)O)c3ccncc23)c(OC)c1 (single isomer, unassigned) [Example 161] |
| 12.3 nM | O=C(N[C@@H](Cc1ccc(-c2ncc3ccccc3c2Br)c2ccccc12)C(=O)O)c1c(Cl)cccc1Cl [Example 113, (S)-3-(4-(4-bromoisoquinolin-3-yl)naphthalen-1-yl)-2-(2,6-dichlorobenzamido) propanoic acid] |
| 0.1 nM | Cc1c(-c2ccc(C[C@H](NC(=O)c3c(F)cc(N4CCOC[C@@H]4C(F)(F)F)cc3F)C(=O)O)c3ncccc23)c(=O)n(C)c2ccc(F)cc12 (single isomer, unassigned) [Example 88] |
| 97.2 nM | COc1cc(F)c(F)cc1-c1ccc(C[C@H](NC(=O)c2c(Cl)cccc2Cl)C(=O)O)c2nccc(C)c12 [Example 97, (S)-2-(2,6-dichlorobenzamido)-3-(5-(4,5-difluoro-2-methoxyphenyl)-4-methylquinolin-8-yl)propanoic acid] |
| 19.2 nM | Cn1c(=O)c(-c2ccc(C[C@H](NC(=O)c3c(Cl)cccc3Cl)C(=O)O)c3ncccc23)c(C(F)(F)F)c2cc(Br)ccc21 [Example 58, (S)-3-(6-bromo-1-methyl-2-oxo-4-(trifluoromethyl)-1,2-dihydro-[3,5′-biquinolin]-8′-yl)-2-(2,6-dichlorobenzamido)propanoic acid] |
| 53.3 nM | O=C(N[C@@H](Cc1ccc(-c2cccc3c2OCCC3)c2ccccc12)C(=O)O)c1c(F)cccc1F [Example 112, (S)-3-(4-(chroman-8-yl)naphthalen-1-yl)-2-(2,6-difluorobenzamido) propanoic acid] |
| 6.2 nM | Cc1c(-c2ccc(C[C@H](NC(=O)c3c(Cl)cccc3Cl)C(=O)O)c3ncccc23)c(=O)n(C)c2ccc(C(F)(F)F)cc12 [Example 66, (S)-2-(2,6-dichlorobenzamido)-3-(1,4-dimethyl-2-oxo-6-(trifluoromethyl)-1,2-dihydro-[3,5′-biquinolin]-8′-yl)propanoic acid] |
| 11.2 nM | COc1cnn(C)c(=O)c1-c1ccc(C[C@H](NC(=O)c2c(Cl)cccc2Cl)C(=O)O)c2ncccc12 [Example 72, (S)-2-(2,6-dichlorobenzamido)-3-(5-(5-methoxy-2-methyl-3-oxo-2,3-dihydropyridazin-4-yl)quinolin-8-yl)propanoic acid] |
| 82 nM | Cc1c(-c2ccc(C[C@H](NC(=O)c3c(Cl)cccc3Cl)C(=O)O)c3ccccc23)c(=O)n(C)c2ccccc12 (single isomer, unassigned) [Example 117] |
| 0.8 nM | CC[C@@H](Nc1cc(F)c(C(=O)N[C@@H](Cc2ccc(-c3c(C)n(C)c(=O)n(C)c3=O)c3cccnc23)C(=O)O)c(F)c1)C(F)(F)F (single isomer, unassigned) [Example 8] |
| 38.8 nM | COc1cc(F)cc(Cl)c1-c1ccc(C[C@H](NC(=O)c2c(Cl)cccc2Cl)C(=O)O)c2ncccc12 (single isomer, unassigned) [Example 54] |
| 23.6 nM | O=C(N[C@@H](Cc1ccc(-c2nccc(Cl)c2C(F)(F)F)c2cccnc12)C(=O)O)c1c(Cl)cccc1Cl [Example 57, (S)-3-(5-(4-chloro-3-(trifluoromethyl)pyridin-2-yl)quinolin-8-yl)-2-(2,6-dichlorobenzamido)propanoic acid] |
| 55.7 nM | Cc1c(-c2ccc(C[C@H](NC(=O)c3c(Cl)cccc3Cl)C(=O)O)c3ncccc23)c(=O)n(C)c2ccc(Cl)cc12 (single isomer, unassigned) [Example 76] |
| 0.08 nM | Cc1cc(N2CCOC[C@@H]2C(F)(F)F)cc(F)c1C(=O)N[C@@H](Cc1ccc(-c2c(C(F)(F)F)cc(C)n(C)c2=O)c2nccnc12)C(=O)O (atropisomer, axis not shown) [Example 178] |
| 210 nM | O=C(N[C@@H](Cc1ccc(-c2c(Cl)cc(F)cc2Cl)c2cccnc12)C(=O)O)c1c(F)cccc1F [Example 1, (S)-3-(5-(2,6-dichloro-4-fluorophenyl)quinolin-8-yl)-2-(2,6-difluorobenzamido)propanoic acid] |
| 374 nM | O=C(N[C@@H](Cc1ccc(-c2cccc3c2COCC3)c2cccnc12)C(=O)O)c1c(Cl)cccc1Cl [Example 20, (S)-2-(2,6-dichlorobenzamido)-3-(5-(isochroman-8-yl)quinolin-8-yl)propanoic acid] |
| 2.5 nM | Cc1c(-c2ccc(C[C@H](NC(=O)c3c(Cl)cccc3Cl)C(=O)O)c3ccccc23)c(=O)n(C)c2ccccc12 (single isomer, unassigned) [Example 118] |
| 15.2 nM | COc1cc(F)c(F)cc1-c1ccc(C[C@H](NC(=O)c2c(Cl)cccc2Cl)C(=O)O)c2nccc(Cl)c12 (single isomer, unassigned) [Example 95] |
| 4.9 nM | CCOCc1cc(OC)c(-c2ccc(C[C@H](NC(=O)c3c(F)cc(NS(=O)(=O)c4ccc(-c5ccnc(F)c5)cc4)cc3F)C(=O)O)c3c2cnn3C)c(OC)c1 [Example 144] |
| 144 nM | Cc1cc(C(F)(F)F)c(-c2ccc(C[C@H](NC(=O)c3c(Cl)cccc3Cl)C(=O)O)c3ncccc23)nn1 [Example 16, (S)-2-(2,6-dichlorobenzamido)-3-(5-(6-methyl-4-(trifluoromethyl)pyridazin-3-yl)quinolin-8-yl)propanoic acid] |
| 1.1 nM | Cc1c(-c2ccc(C[C@H](NC(=O)c3c(Cl)cccc3Cl)C(=O)O)c3ncccc23)c(=O)n(C)c2ccc(F)cc12 [Example 10, (S)-2-(2,6-dichlorobenzamido)-3-(6-fluoro-1,4-dimethyl-2-oxo-1,2-dihydro-[3,5′-biquinolin]-8′-yl)propanoic acid] |
| 0.6 nM | CC[C@@H](Nc1cc(F)c(C(=O)N[C@@H](Cc2ccc(-c3c(OC)cc(C)n(C)c3=O)c3ccccc23)C(=O)O)c(F)c1)C(F)(F)F (single isomer, unassigned) [Example 130] |
